Data from US6303596A, “Use of taurolidine for treatment of leukemias” (priority 2000, dated 2001).

Legend:
[1] = tested on: ECV304 (endothelial cells); assay: growth rate (proliferation) after taurolidine treatment, ECV304; assay type: cell-based, human; settings: ECV304, 50 and 100 μg/ml taurolidine
Experimental: FIGS. 10A and 10B depict cell viability and growth rates for ECV304 cell line following taurolidine treatment, in terms of % trypan blue negative cells and % cell number, respectively. Cells were treated with various concentrations of taurolidine for 4 hours in AIM-V+0.01% BCS. After aliquots were collected for LDH assay, the remainder of the culture was rinsed in HBSS and resuspended in RPMI+10% BCS without taurolidine. Counts of trypan blue-negative cells (FIG. 10A), and total cell number (FIG. 10B), were recorded daily thereafter (with the measurement at Day 1 being made immediately after the 4 hour taurolidine treatment). Conditions were: no treatment (open circles); 25 μg/ml taurolidine (closed circles); 50 μg/ml taurolidine (open squares); 100 μg/ml taurolidine (closed squares); and vehicle alone (closed triangles). Doubling times were determined under each condition, and expressed as a percentage of the rate of doubling of untreated cells. These values are located to the right of the growth curves in (FIG. 10B). […]
(§1) HL-60 cells treated with 50 μl taurolidine. In these samples, LDH present in the culture medium was 8.3±2.3% of that released by completely lysed cells, compared with 2.3±0.8% measured in control cultures. […] After 4 hour treatment, cells were rinsed and returned to growth medium and monitored for viability and growth over the following 3 days. […]

MM6 cells [2] = assay: DNA fragmentation, agarose gel electrophoresis, MM6; assay type: cell-based, human
Experimental: FIG. 13 is an agarose gel depicting DNA fragmentation in response to taurolidine treatment as determined by assay procedures. MM6 cells were incubated with taurolidine or vehicle in RPMI+10% BCS for four hours. Cells were harvested and low molecular weight DNA extracted as described below. C=control cells without taurolidine or vehicle treatment; T=treated with 50 μg/ml taurolidine; V=treated with vehicle alone; and MW=molecular weight markers.
Following treatment with either taurolidine or the vehicle solution, cell death was assessed in one of two ways. In the first method, the DNA fragmentation pattern characteristic of apoptosis was detected by extracting low molecular weight DNA from cells using a phosphate-citrate buffer (Darzynkiewicz, et al., "Assays of cell viability: discrimination of cells dying by apoptosis," Methods Cell Biol 41:15 (1994)) and subjecting the extracted DNA to agarose gel electrophoresis.
Apoptosis is associated with fragmentation of genomic DNA in the internucleosomal linker regions, which can be visualized as a characteristic ladder of DNA fragments upon gel electrophoresis. Arends, M. J. and Wyllie, A. H., "Apoptosis: mechanisms and roles in pathology," Int Rev Exp Path 32:223 (1991). Accordingly, low molecular weight DNA was extracted from taurolidine-treated MM6 cells and subjected to electrophoresis in agarose gels.

MM6 cells [3] = assay: cell morphology / size (microscopy, flow cytometry FSC and SSC), MM6; assay type: cell-based, human
Experimental: FIG. 12A, FIG. 12B, FIG. 12C, and FIG. 12D are flow cytometric analyses depicting changes in cell morphology following taurolidine treatment. MM6 and PBMC were treated for three hours with taurolidine, and then treated and untreated control cells were processed for flow cytometry. Monocytes in PBMC samples were identified by staining with FITC-conjugated anti-CD14, and lymphocytes by FITC-conjugated anti-CD3 and PE-conjugated anti-CD19. FIG. 12A represents untreated MM6 cells; FIG. 12B represents MM6 cells treated with 50 μg/ml taurolidine; FIG. 12C represents untreated PBMC; and FIG. 12D represents PBMC treated with 75 μg/ml taurolidine. M=monocytes; L=lymphocytes.
A Becton-Dickinson FACSCalibur instrument was used for flow cytometric analysis of cells. Assessment of cell diameter (forward scatter; FCS) and granularity (side scatter; SSC).was carried out on unfixed cells. Discrimination between lymphocytes and monocytes was made possible by their characteristic differences in FSC and SSC, and confirmed by staining monocytes with FITC-labeled anti-CD14 antibodies and lymphocytes with a combination of FITC-conjugated anti-CD3 and PE-conjugated anti-CD19. After incubation with taurolidine (with or without concomitant LPS treatment), cells were rinsed twice in phosphate-buffered saline containing 0.1% bovine serum albumin (PBSA) and 1×10^6 cells were resuspended in 0.1 ml PBSA. […]

ECV304 = assay: subcellular-sized events by flow cytometry, ECV304; assay type: cell-based, human; settings: ECV304, after taurolidine treatment
Experimental: Less than 0.1% of ECV304 or GM5387 cells were TUNEL-positive 6 hours after treatment with taurolidine or anisomycin (Table VIII). Therefore, neither of these agents induce rapid DNA fragmentation in these cell types. However, there was approximately a 70% increase in the number of subcellular-sized events recorded by flow cytometry after taurolidine treatment of these cells, indicating some effect of taurolidine on cell integrity. These cell fragments were not stained by propidium iodide, consistent with them being apoptotic bodies.

[4] = tested on: other leukemia-derived cell lines; assay: growth after taurolidine treatment, other leukemia-derived cell lines; assay type: cell-based, human; settings: 50 μg/ml or greater
Experimental: In these experiments, integrity of cell membranes following taurolidine treatment was assessed by exclusion of trypan blue and by measuring the release of LDH in MM6, K-562, HL-60, and REH cells. Since BCS contains significant amounts of LDH, these experiments were conducted on cells cultured in AIM-V+0.01% BCS. Four hour treatment of cells was conducted in AIM-V containing 0.01% BCS in order to allow subsequent LDH assay without interference from BCS (which occurs in when normal culture medium, containing 10% BCS, is used). Thus, MM6 cells (5×10^5 cells/ml) were treated with taurolidine for four hours in AIM-V+0.01% BCS, after which an aliquot of the cell suspension was removed for measurement of LDH release. A parallel aliquot of cells was lysed by three cycles of freeze/thaw and the quantity of LDH released was taken to be 100%. Remaining cells were rinsed in HBSS and resuspended in growth medium for measurement of growth rates.
as §1

epithelial cells = settings: 5 mg/ml taurolidine, two hours; cited from earlier work

## O=S1(=O)CCN(CN2CCS(=O)(=O)NC2)CN1 [taurolidine, 4,4'-methylenebis(perhydro-1,2,4-thiadiazin 1,1-dioxide)]
[1]
  proliferation after treatment: inhibited proliferation
MM6 cells [2]; MM6, 50 μg/ml taurolidine, 4 h, no LPS
  DNA fragmentation ladder: prominent ladder pattern of DNA fragments
MM6 cells [2]; MM6, LPS present during taurolidine treatment
  DNA fragmentation ladder: identical results
MM6 cells [3]; MM6, 100 μg/ml taurolidine, 4 h
  cell size by microscopy: smaller than control cells
MM6 cells [3]; MM6, taurolidine 3 h
  decrease in FSC: approximately 30%
ECV304
  increase in the number of subcellular-sized events: ~70%
[4]
  growth after taurolidine treatment: inhibition of growth
Epithelial cells
  toxic effects on epithelial cells: No toxic effects
